Source: US20220168431A1, “METHODS OF TREATING CANCER USING TRIMETAZIDINE-BASED COMPOUNDS” (IMBRIA PHARMACEUTICALS, INC., priority 2019, published 2022)

What was measured:
Conditions in all cases: 10 μM CV-8814
[1] = target: Peptidase, Angiotensin Converting Enzyme (Oryctolagus cuniculus, UniProt P12822); type: biochemical, rabbit
[2] = target: Cholinesterase, Acetyl, ACES (Homo sapiens, UniProt P22303); type: biochemical
Estrogen ERα = Estrogen ERα (Homo sapiens, UniProt P03372); type: binding
Adrenergic α1D = Adrenergic α1D (Homo sapiens, UniProt P25100); type: binding
Sequence of Adrenergic α1D (P25100 whole entry): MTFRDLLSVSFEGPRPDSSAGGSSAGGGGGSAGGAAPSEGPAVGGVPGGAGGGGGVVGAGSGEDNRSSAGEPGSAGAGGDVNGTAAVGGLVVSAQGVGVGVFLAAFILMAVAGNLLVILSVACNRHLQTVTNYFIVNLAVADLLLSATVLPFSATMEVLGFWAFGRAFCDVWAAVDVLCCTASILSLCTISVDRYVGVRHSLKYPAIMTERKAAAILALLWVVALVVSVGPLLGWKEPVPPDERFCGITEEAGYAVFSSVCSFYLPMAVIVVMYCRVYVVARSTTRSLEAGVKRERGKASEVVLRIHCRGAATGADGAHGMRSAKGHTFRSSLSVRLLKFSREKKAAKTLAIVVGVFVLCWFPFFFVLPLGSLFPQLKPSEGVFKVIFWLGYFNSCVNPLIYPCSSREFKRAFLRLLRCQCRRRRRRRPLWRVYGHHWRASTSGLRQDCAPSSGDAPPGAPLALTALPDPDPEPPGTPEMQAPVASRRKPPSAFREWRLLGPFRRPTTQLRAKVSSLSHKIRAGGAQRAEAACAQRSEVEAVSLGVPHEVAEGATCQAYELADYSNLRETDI

Dopamine D2S = Dopamine D2S (Homo sapiens, UniProt P14416); type: binding
[3] = target: Cholecystokinin CCK1 (CCKA) (Homo sapiens, UniProt P32238); type: binding
[4] = target: Transporter, Norepinephrine (NET) (Homo sapiens, UniProt P23975); type: binding
[5] = target: Serotonin (5-Hydroxytryptamine) 5-HT2C (Homo sapiens, UniProt P28335); type: binding
Sequence of Serotonin (5-Hydroxytryptamine) 5-HT2C (P28335 33-458): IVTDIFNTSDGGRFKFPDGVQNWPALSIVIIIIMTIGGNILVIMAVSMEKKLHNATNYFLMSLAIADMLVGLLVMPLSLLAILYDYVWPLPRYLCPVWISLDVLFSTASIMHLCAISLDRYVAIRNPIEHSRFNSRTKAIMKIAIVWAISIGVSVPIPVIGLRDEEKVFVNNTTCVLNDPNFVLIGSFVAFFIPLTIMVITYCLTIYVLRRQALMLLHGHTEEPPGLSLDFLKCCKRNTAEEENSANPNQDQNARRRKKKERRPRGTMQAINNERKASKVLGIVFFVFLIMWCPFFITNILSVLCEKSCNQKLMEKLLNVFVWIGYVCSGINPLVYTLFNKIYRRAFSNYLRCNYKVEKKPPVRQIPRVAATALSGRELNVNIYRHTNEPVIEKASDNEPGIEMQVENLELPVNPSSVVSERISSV

Tachykinin NK1 = Tachykinin NK1 (Homo sapiens, UniProt P25103); type: binding
Adrenergic α1A = Adrenergic α1A (Rattus norvegicus, UniProt P43140); type: binding
Dopamine D1 = Dopamine D1 (Homo sapiens, UniProt P21728); type: binding
[6] = target: Peptidase, CTSG (Cathepsin G) (Homo sapiens, UniProt P08311); type: biochemical
Cannabinoid CB2 = Cannabinoid CB2 (Homo sapiens, UniProt P34972); type: binding
Adrenergic β2 = Adrenergic β2 (Homo sapiens, UniProt P07550); type: binding
Sequence of Adrenergic β2 (P07550 whole entry): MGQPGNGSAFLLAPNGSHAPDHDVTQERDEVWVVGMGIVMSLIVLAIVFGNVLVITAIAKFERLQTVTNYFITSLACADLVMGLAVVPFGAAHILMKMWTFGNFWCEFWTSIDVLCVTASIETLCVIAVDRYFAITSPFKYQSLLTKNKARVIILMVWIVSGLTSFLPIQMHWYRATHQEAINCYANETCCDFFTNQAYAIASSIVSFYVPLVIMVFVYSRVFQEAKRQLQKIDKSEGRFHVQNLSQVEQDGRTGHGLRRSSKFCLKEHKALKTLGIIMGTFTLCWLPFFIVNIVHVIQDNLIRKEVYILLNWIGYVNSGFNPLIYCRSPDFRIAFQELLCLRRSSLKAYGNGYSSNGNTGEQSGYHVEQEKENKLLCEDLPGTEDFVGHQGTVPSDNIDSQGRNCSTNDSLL

Muscarinic M3 = Muscarinic M3 (Homo sapiens, UniProt P20309); type: binding
Sequence of Muscarinic M3 (P20309 whole entry): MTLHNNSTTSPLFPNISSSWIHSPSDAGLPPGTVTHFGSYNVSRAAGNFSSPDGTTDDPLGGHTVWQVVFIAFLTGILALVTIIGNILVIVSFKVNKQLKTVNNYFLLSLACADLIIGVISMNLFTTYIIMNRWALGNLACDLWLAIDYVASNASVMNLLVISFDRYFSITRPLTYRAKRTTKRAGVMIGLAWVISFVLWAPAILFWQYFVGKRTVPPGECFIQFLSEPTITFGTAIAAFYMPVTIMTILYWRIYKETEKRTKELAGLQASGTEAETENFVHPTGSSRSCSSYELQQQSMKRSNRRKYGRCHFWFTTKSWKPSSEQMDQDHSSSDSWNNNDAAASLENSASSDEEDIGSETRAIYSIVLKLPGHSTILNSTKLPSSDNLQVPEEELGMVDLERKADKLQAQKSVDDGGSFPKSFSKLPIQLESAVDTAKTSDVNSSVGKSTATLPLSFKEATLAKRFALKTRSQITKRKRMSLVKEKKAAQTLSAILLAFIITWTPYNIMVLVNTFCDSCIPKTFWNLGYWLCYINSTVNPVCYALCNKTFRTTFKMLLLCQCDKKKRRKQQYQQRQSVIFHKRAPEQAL

Histamine H2 = Histamine H2 (Homo sapiens, UniProt P25021); type: binding
[7] = target: Platelet Activating Factor (PAF) (Homo sapiens, UniProt P25105); type: binding
[8] = target: Serotonin (5-Hydroxytryptamine) 5-HT1A (Homo sapiens, UniProt P08908); type: binding
Adrenergic α2A = Adrenergic α2A (Homo sapiens, UniProt P08913); type: binding
Chemokine CCR1 = Chemokine CCR1 (Homo sapiens, UniProt P32246); type: binding
GABAB1A = GABAB1A (Homo sapiens, UniProt Q9UBS5); type: binding
Sequence of GABAB1A (Q9UBS5 15-961 limits assumed): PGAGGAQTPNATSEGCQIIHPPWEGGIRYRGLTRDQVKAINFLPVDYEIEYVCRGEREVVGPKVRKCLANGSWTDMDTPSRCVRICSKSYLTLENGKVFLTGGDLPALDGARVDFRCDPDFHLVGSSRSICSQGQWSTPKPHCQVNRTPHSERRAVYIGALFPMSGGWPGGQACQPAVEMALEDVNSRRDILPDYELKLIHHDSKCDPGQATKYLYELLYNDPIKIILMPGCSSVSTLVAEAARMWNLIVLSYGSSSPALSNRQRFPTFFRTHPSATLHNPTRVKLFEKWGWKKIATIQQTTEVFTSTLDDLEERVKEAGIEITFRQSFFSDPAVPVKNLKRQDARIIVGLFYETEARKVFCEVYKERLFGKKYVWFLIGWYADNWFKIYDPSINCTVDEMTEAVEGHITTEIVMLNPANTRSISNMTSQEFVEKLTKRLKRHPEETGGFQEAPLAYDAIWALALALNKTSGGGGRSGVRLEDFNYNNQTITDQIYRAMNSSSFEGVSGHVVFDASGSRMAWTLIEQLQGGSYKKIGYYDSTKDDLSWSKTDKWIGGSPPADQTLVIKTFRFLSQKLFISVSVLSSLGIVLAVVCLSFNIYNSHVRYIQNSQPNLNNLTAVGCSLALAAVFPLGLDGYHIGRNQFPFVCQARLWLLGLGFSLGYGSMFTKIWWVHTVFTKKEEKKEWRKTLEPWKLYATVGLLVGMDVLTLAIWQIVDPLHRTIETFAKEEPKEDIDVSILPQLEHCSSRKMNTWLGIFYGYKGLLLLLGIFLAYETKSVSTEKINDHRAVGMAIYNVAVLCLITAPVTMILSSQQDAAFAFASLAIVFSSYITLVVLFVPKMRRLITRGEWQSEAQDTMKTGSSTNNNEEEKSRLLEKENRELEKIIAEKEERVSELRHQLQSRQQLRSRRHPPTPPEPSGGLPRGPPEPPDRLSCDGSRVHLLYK
Sequence of GABAB1A (O75899 42-941 partner): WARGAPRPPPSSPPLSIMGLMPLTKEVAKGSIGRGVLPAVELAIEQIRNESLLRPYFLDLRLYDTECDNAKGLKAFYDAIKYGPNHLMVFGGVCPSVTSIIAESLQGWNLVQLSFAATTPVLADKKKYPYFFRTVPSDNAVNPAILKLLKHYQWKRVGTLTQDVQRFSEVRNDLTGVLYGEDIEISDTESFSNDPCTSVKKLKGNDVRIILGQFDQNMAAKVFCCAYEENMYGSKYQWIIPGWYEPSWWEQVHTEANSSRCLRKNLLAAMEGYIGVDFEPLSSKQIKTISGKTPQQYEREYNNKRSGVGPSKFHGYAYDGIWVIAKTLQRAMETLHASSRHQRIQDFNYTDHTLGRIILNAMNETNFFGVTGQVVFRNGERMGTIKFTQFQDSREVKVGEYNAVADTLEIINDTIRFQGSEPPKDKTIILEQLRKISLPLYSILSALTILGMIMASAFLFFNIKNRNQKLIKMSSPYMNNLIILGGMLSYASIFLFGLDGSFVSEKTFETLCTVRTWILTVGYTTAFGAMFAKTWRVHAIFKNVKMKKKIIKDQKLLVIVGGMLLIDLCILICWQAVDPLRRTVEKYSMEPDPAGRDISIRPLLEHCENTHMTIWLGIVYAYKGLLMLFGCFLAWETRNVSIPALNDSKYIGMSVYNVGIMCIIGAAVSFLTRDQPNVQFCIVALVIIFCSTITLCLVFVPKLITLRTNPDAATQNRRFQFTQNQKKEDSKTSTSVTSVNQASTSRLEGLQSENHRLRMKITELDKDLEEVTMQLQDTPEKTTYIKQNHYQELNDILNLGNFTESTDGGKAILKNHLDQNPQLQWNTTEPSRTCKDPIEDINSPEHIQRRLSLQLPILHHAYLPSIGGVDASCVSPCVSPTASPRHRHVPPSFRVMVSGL

Adrenergic α2B = Adrenergic α2B (Homo sapiens, UniProt P18089); type: binding
Vasopressin V1A = Vasopressin V1A (Homo sapiens, UniProt P37288); type: binding
PPARγ = PPARγ (Homo sapiens, UniProt P37231); type: binding
Sequence of PPARγ (P37231 whole entry): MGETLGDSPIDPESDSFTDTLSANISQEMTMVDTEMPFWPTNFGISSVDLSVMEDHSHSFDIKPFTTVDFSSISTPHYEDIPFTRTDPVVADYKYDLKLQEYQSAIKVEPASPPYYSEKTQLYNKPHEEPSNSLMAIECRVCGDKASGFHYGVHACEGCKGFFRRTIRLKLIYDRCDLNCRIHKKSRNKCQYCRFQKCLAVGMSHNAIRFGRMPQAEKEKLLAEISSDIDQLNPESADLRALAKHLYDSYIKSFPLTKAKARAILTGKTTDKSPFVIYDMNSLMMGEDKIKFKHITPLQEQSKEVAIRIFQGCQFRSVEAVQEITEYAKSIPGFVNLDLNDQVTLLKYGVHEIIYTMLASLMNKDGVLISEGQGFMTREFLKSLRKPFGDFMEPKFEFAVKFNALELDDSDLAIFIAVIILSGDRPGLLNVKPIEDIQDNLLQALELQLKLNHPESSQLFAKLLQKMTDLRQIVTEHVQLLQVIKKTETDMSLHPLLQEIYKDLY

Cannabinoid CB1 = Cannabinoid CB1 (Homo sapiens, UniProt P21554); type: binding

Measured: inhibition at 10 µM

Sequence of Cholinesterase, Acetyl, ACES (P22303 32-614): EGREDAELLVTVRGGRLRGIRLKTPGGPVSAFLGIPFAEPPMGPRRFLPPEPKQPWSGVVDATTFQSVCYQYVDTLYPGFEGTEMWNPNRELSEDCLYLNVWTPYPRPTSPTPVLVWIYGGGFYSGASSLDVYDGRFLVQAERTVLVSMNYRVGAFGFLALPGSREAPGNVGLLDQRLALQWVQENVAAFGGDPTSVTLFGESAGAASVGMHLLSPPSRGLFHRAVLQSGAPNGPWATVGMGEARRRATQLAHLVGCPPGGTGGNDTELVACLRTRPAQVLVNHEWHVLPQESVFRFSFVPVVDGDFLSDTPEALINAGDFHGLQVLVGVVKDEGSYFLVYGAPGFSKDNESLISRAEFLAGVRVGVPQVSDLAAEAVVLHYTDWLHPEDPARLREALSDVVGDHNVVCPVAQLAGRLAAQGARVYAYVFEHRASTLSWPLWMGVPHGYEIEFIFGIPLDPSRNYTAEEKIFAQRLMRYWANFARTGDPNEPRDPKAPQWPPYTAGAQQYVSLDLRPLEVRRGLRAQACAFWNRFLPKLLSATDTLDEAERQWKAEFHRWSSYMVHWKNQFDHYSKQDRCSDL

COc1ccc(CN2CCN(CCO)CC2)c(OC)c1OC [CV-8814, 2-(4-(2,3,4-trimethoxybenzyl)piperazin-1-yl)ethan-1-01]
< 50%: all assays above
